Test system: C57BL/6JRj mice injured by intra-nigral injections of α-syn combined with conduritol B epoxide
Assay: Mouse model of Parkinson's disease (intra-nigral α-syn plus CBE)
Format: in vivo
Conditions: 30 mg/kg per os twice a day
Description: This model (run by Neuro-Sys SAS, France) uses C57BL/6JRj mice injured by intra-nigral injections of a solution containing protofibrils of alpha-synuclein (α-syn, precisely quantified by automatic Western Blot) and combined with pharmacological inhibition of GBA by conduritol B epoxide, in aged mice. The model reproduces essential neuropathological features of PD (e.g. loss of dopaminergic neurons, α-syn aggregation, endoplasmic reticulum [ER] stress) and the neuroinflammatory response (microglia activation and release of proinflammatory cytokines) in the nigra striata area.
Animal characteristics: • Type of animal: C57BL/6JRj (Male) • Age: 18 months old • Supplier: Janvier Labs • Animal number: 7 mice per group • Acclimation and clinical signs: Animals arrived on site 7 days (one week) before the experiment to allow optimal acclimation.
• Test compound dose and administration: 30 mg/kg, per os (gavage or drinking water), twice a day • Test compound treatment: The test compound was solubilized (vehicle=water), aliquoted and stored at −20° C. Aliquots were thawed overnight at 4° C. and given twice a day (morning and afternoon). Treatment started on the day of the stereotaxic injections of α-syn preparation (Day 0). Treatment was administrated until the last day of the experiment (Day 28; =day of dissection). • CBE dose and administration: 50 mg/kg, Intraperitoneal (i.p.), twice a day. • CBE treatment: Administration of CBE (vehicle=saline [NaCl 0.9%] started on the day of the stereotaxic injections of α-syn preparation (Day 0). Treatment was administrated until the last day of the experiment (Day 28; =day of dissection), • Untreated control: vehicle (saline; i.p.) administered twice a day, […]
For overall evaluation and body mass, mice were observed daily, and body mass was monitored prior the morning drug administration. […]

[1] = day 28, compared to the α-syn/CBE injured group

For CCN1CCC(N(C)C(=O)c2csc(-c3cnn(-c4ccccc4)c3)n2)CC1 [Compound 196, N-(1-ethylpiperidin-4-yl)-N-methyl-2-(1-phenyl-1H-pyrazol-4-yl)-1,3-thiazole-4-carboxamide], the “body mass of the animals” value (after 4 weeks of treatment) was “did not significantly modify”, the “decrease in the number of Iba1-positive microglial cells in the SNpc” value [1] was greater than 15% and the “increase in the number of dopaminergic TH positive neurons in the SNpc” value [1] was greater than 60%.
